Values after ≈ are worked out from the molar mass of the structure shown.
Legend:
KB = experiment: Cytotoxicity against human KB cells after 3 days by MTT assay; type: functional, cell-based; conditions: 72 h
[1] = Cytotoxicity against human KB/VJ300 cells after 3 days by MTT assay; type: functional, cell-based; conditions: KB/VJ300, 72 h

Structure (SMILES)	IC50 (KB)	IC50 [1]
CC[C@@H]1CN2CC[C@@]34C5=C(C[C@]6(CN5c5ccccc53)C3=Nc5ccccc5[C@@]35CCN3C[C@@H](CC)[C@@H]6C[C@H]35)[C@H]1C[C@H]24 [LEUCORIDINE A]	0.57 µg/mL (≈ 1.02 µM)	2.39 µg/mL (≈ 4.29 µM)
CCC1=CN2CC[C@@]34C(=Nc5ccccc53)[C@@]3(CC5=C6N(C3)c3ccccc3[C@@]63CCN6C[C@@H](CC)[C@@H]5C[C@H]63)[C@H]1C[C@H]24 [LEUCORIDINE B]	11.6 µg/mL (≈ 20.9 µM)	12 µg/mL (≈ 21.7 µM)
CC[C@@H]1CN2CC[C@@]34C5=C(C[C@]6(CN5c5ccccc53)C(=O)[C@@]3(c5ccccc5N)CCN5C[C@@H](CC)[C@@H]6C[C@H]53)[C@H]1C[C@H]24 [LEUCORIDINE C]	10.9 µg/mL (≈ 19 µM)	11.8 µg/mL (≈ 20.5 µM)
C=C1[C@H]2C[C@@H]3N(CC[C@@]34c3cccc(C[C@@H]5C6=Nc7ccccc7[C@@]67CCN6C[C@@H](CC)[C@@H]5C[C@H]67)c3N[C@@H]14)C[C@H]2CC [LEUCORIDINE D]	12.5 µg/mL (≈ 22.4 µM)	13.3 µg/mL (≈ 23.8 µM)
